Data set [1] can be described thus: Single ascending dose (SAD) oral pharmacokinetics of anle138b in healthy subjects, plasma. Format: in vivo, human. The following applies: for AUC(0-t) / Cmax: human, plasma, fasted, geometric mean (CV%); for AUC(0-t): read-out: AUC(0-24). The method, then: This was a single-centre, double-blind, randomised, placebo-controlled single ascending dose (SAD) and multiple ascending dose (MAD) study of anle138b in doses of up to 300 mg per day in healthy subjects. In addition, the effect of food (FES) on the PK of anle138b in healthy subjects was examined using single doses of 150 mg. Participants were recruited from Quotient Sciences (Nottingham, UK) volunteer database.
As a safety precaution, sentinel dosing was performed for all SAD and MAD cohorts. In SAD, subjects received a single dose of anle138b or placebo after fasting from all food and drink (except water) for a minimum of 8 h prior to dosing. The dosing in the four SAD-cohorts were 50 mg, 100 mg, 200 mg and 300 mg of free anle138b equivalent, respectively. In the MAD part, participants received anle138b or placebo once daily (QD) for 7 days after fasting from all food and drink (except water) for a minimum of 8 h prior to dosing. The dosing in the three MAD-cohorts was 100 mg, 200 mg and 300 mg of free anle138b equivalent, respectively. Post dosing mouth and hand checks were conducted to ensure the capsules were swallowed. In-study decisions regarding continuation and dose escalation were made by the safety advisory committee (SAC) comprising the principal investigator, the sponsor's medical monitor and a PK expert. For dose escalation to proceed, data needed to be available from a minimum of 6 subjects per cohort with completed per protocol safety and PK assessments up to 48 h after dosing to ensure at least 4 subjects had received active IMP. The decision to proceed to the next higher dose level was based on safety, tolerability and available PK data to 48 h post-dose. The following data were required: Adverse events, vital signs, safety laboratory, ECG, physical examinations, plasma concentrations of anle138b with interim PK parameter estimations (Tmax, Cmax, AUC(0-24), AUC(0-tau), AUC(0-last) and T½, where applicable). Data were provided to the SAC in accordance with Quotient Sciences’ standard operating procedure (SOP) on interim dose decision-making and dose escalation.
Secondary outcome measures were the oral PK of single (SAD) and multiple (MAD) ascending doses of anle138b in the fasted state as well as the effect of co-administration with food on the PK of anle138b. To this end PK blood samples were taken at day 1 (and for MAD day 7) pre-dose and at 0·5, 1, 1·5, 2, 3, 4, 6, 8, 10, 12, 16 and 20 h post-dose, at days 2 to 6 pre-dose only (MAD) and 24, 30, 36 and 48 h post final dose. Analysis of anle138b in plasma was done at Aptuit, an Evotec company, in Verona, Italy. Time point of last quantifiable data was seen to increase with an increase in dose as follows: SAD: from the 50mg dose (subjects ranged between 8-24h) to the 300mg dose (subjects ranged between 36-48h). MAD: from the 100mg dose (subjects ranged between 8-36h) to the 300mg dose (subjects ranged between 20-48h). In FES, subjects ranged between 24-48h.
The study was exploratory and no formal sample size calculation was made. Based on experience from previous studies of similar design, eight subjects per cohort were enrolled for parts 1 (SAD) and 2 (MAD) and a total of twelve subjects for part 3 (FES). Populations and analysis sets were determined for safety and PK data after database lock using the criteria defined in the reporting and analysis plan. The safety population and safety analysis set for SAD and MAD were defined after database lock but prior to study unblinding. Statistical analysis and production of summary tables, figures and listings for all safety data (AEs, vital signs, ECGs and safety laboratory assessments) including changes from baseline as required in this study were performed using the statistical package SAS (v9·4). Additional statistics was provided for PK-related data including coefficient of variation (CV%), geometric mean, geometric CV%, and the number n of subjects that were included in the natural logarithmic transformation). […]

Data set [2] is described as follows: 28-day cynomolgus monkey toxicity study. The following applies: in vivo; for Cmax: 125 mg/kg/day, read-out: Cmax at NOAEL. An excerpt:
This trial followed the recommendations of the EMA (European Medicines Agency) (EMEA/CHMP/SWP/28367/07 Rev. 1; 20 July 2017) and the FDA (Food and Drug Administration) (Guidance for Industry: Estimating the Maximum Safe Starting Dose in Initial Clinical Trials for Therapeutics in Adult Healthy Volunteers. U.S. Department of Health and Human Services Food and Drug Administration Center for Drug Evaluation and Research (CDER) July 2005) for dose finding in a first-in-human study. The safe starting dose was set based on toxicity studies in animals. In a 28-day toxicity study in rats, the no-observed-adverse-effect-level (NOAEL) was determined to be 50 mg/kg/day (human equivalent dose of 8·1 mg/kg using the FDA factor of 6·2 according to the FDA Guidance for Industry “Estimating the Maximum Safe Starting Dose in Initial Clinical Trials for Therapeutics in Adult Healthy Volunteers”). Cmaxǀexposure at 50 mg in males were 2460ǀ25600 and in females 2680ǀ21700 ng/mL ǀ ng*h/mL. In a 28-day cynomolgus monkey toxicity study, the NOAEL was 125 mg/kg/day (human equivalent dose of 40·3 mg/kg). Cmaxǀexposure at 125 mg/kg/day were 3170ǀ15700 (males) and 2720ǀ9720 (females) ng/mL ǀ ng*h/mL. Based upon these NOAELs a safe starting dose derived from the more sensitive species (rat) was calculated using a safety factor of 10 (i.e., 0·8 mg/kg), which corresponds to a dose of approximately 50 mg assuming a body weight of 60 kg. […] Escalation between doses was planned to be flexible depending on emerging results but not to exceed an increment of 2-fold.

[3] abbreviates: SAD Cohort B 100 mg single oral dose.
Setting [4] is: SAD Cohort C 200 mg single oral dose.
Setting [5] is: SAD Cohort D 300 mg single oral dose.

Read-outs that look alike come from different tables or passages of the source.

The results in this text go back to PMC9065877, “Safety, tolerability and pharmacokinetics of the oligomer modulator anle138b with exposure levels sufficient for therapeutic efficacy in a murine Parkinson model: A randomised, double-blind, placebo-controlled phase 1a trial” (EBioMedicine, 2022).

In general, Cmax refers to the maximum level reached in the sampled fluid or tissue. As a reminder, the NOAEL is the highest dose or exposure tested at which no adverse effect was seen.

For the molecule `Brc1cccc(-c2cc(-c3ccc4c(c3)OCO4)n[nH]2)c1` [anle138b, 3-(1,3-benzodioxol-5-yl)-5-(3-bromophenyl)-1H-pyrazole], the “Time point of last quantifiable data (range of subjects)” value in data set [1] (SAD 50mg dose) is 8 to 24 h; in data set [1] (SAD 300mg dose), 36 to 48 h. Moreover, the AUC(0-t) in data set [1] (SAD Cohort A 50 mg single oral dose) turned out to be 113 ng·h/mL; in data set [1] (setting [3]), 366 ng·h/mL; in data set [1] (setting [4]), 1090 ng·h/mL; in data set [1] (setting [5]) it was 1650 ng·h/mL. Also, the peak concentration (Cmax) is 156 ng/mL in data set [1] (setting [3]); 458 ng/mL in data set [1] (setting [4]); 704 ng/mL in data set [1] (setting [5]); 2720 ng/mL in data set [2] (female, females); 3170 ng/mL in data set [2] (male, males). For the same molecule, in data set [1] (single 100 mg dose), the “Achievement of potential therapeutic exposure (based upon nonclinical in vivo models)” value is on record as “already achieved after single 100 mg dose”. This molecule displayed an NOAEL at 28 days in data set [2] (28-day toxicity study) of 125 mg/kg/day.
